{"source": "paper PMC9569529", "about": "“Safe and Efficient Sigma1 Ligand: A Potential Drug Candidate for Multiple Sclerosis” (International Journal of Molecular Sciences, 2022)", "key": {"[1]": {"system": "40 different receptors relevant to CNS disease", "set-up": "method as in PMID 28756263", "conditions": "40 receptors relevant to CNS disease; cited from earlier work"}, "[2]": {"system": "HepG2", "assay": "Cytotoxicity analysis in HepG2 cells", "format": "cell-based, human", "conditions": "% at 10 µM", "procedure": "Cytotoxicity analysis was performed by Eurofins Cerep (Poitiers, France) according to [74]. Compound 7i was evaluated at 10 µM in the HepG2 cell line. Cell number, nuclear size, mitochondrial membrane potential, intracellular free calcium and membrane permeability were analyzed. % inhibition or % increase were calculated."}, "[3]": {"system": "human peripheral blood mononuclear cells (hPBMCs)", "assay": "Immunotoxicity, immunophenotyping by flow cytometry", "format": "cell-based", "conditions": "10 µM, 48 h", "procedure": "Immunotoxicity analysis was performed by Immune Insight CRO (Lille, France) on human peripheral blood mononuclear cells (hPBMCs) from six individual healthy donors. hPBMCs were either non-stimulated (basal) or stimulated using E. coli lipopolysaccharide (LPS, Sigma Aldrich, St. Louis, MO, USA) at 100 ng/mL. hPBMCs were activated with plate-bound anti-CD3 (10 ng/mL) monoclonal antibody (mAb) and incubated at 37 °C for 2 h before the culture and soluble anti-CD28 (10 ng/mL) mAb (Clinisciences, Montrouge, France) were added. Compound 7i was tested at 10 µM. The quality of hPBMC activation was controlled using cytometric analysis based on CD25 staining and proliferation assays based on ^3H-thymidine incorporation. Immune cell subpopulations were immunophenotyped among hPBMCs by flow cytometry on an Attune NxT (Thermofisher Scientific Inc. Waltham, MA, USA). Analyses were performed at 48 h post treatment. The expression of B, CD4, CD8, Th17 and Treg lymphocyte surface antigens was tested using monoclonal mouse anti-human Ab (Miltenyi Biotec SAS, Paris, France) (Table 9). […]"}, "[4]": {"system": "S. typhimurium TA1537", "assay": "Ames test", "conditions": "7i 40 µg/plate"}, "[5]": {"system": "QT interval", "assay": "ECG QT interval analysis under isoflurane anesthesia", "conditions": "for QT Interval Basal / QT Interval 3 min / QT Interval 6 min / QT Interval 10 min / QT Interval 20 min / QT Interval 30 min: in ms (unit assumed); for QT Interval 3 min: 3 min after injection; for QT Interval 6 min: 6 min after injection; for QT Interval 10 min: 10 min after injection; for QT Interval 20 min: 20 min after injection; for QT Interval 30 min: 30 min after injection", "experimental": "Four electrodes were inserted subcutaneously in the mouse limbs. Electrical signals were recorded with a Powerlab (Ad instruments) and analyzed with LabChart Pro software (v8.1.19).\nHeart rate and PR, QRS and QT intervals were measured as described in Supplementary Figure S3."}, "[6]": {"system": "SH-SY5Y", "assay": "Cytotoxicity in human neuroblastoma cell line (MTT/MTS)", "format": "cell-based", "conditions": "72 h", "procedure": "Toxicity analysis was performed in the human neuroblastoma cell line (SH-SY5Y), which was cultured in Dulbecco’s Modified Eagle Medium (DMEM, Gibco) supplemented with 2 mM L-glutamine (Invitrogen, Thermo Fisher Scientific Inc. Waltham, MA, USA), […] streptomycin (Invitrogen), 100 IU/mL penicillin (Invitrogen), 1 mM non-essential amino acids (Invitrogen) and 10% (v/v) heat inactivated fetal bovine serum (Sigma Aldrich, Burlington, MA, USA) and grown at 37 °C in a humidified incubator with 5% CO2. […] After 72 h of incubation, cell growth was estimated by the colorimetric MTT assay (CellTiter 96® aqueous one solution cell proliferation assay-MTS, Promega, Madison, WI, USA) according to the manufacturer’s protocol. Absorbance was read at 490 nm and results were expressed as % from the control condition considered as 100%."}, "[7]": {"molecular_target": "T1, S1R (Homo sapiens, UniProt Q99720)", "T1 construct": "host or cells: Jurkat cell membranes", "T1 sequence (Q99720 whole entry)": "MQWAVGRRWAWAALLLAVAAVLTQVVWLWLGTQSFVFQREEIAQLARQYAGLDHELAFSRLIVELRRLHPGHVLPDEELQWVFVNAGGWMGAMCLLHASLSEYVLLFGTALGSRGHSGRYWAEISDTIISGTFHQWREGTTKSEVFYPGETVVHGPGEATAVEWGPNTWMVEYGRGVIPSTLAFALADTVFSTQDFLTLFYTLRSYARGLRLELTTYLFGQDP", "assay": "S1R binding assay, [3H](+)-pentazocine, Jurkat cell membranes", "procedure": "The binding assays were performed by Eurofins Cerep (Poitiers, France) according to Ganapathy. Briefly, S1R)binding assay was carried out by incubating Jurkat cell membranes ([…] protein per tube) with [^3H] (+)-pentazocine (15 nM) and a range of concentrations of test compounds at 37 °C for 2 h in 5 mM Tris HCl buffer (pH = 7.4). The S2R binding assay was performed by incubating Jurkat cell membranes ([…] protein per tube) with [^3H]-DTG (25 nM) in the presence of (+)-pentazocine (1 mM), to saturate S1R, and a range of concentrations of test compounds at room temperature for 1 h in 5 mM Tris HCl buffer (pH = 7.4). Bound radioactivity was measured using liquid scintillation counting. Nonspecific binding was determined in both assays, under similar conditions, as remaining in the presence of […] unlabeled haloperidol. Inhibition constants (Ki) were calculated from the IC50 values according to the method of Cheng and Prusoff."}}, "data": [{"smiles": "CN(CCCNC(=O)c1ccc(Cl)cc1)Cc1ccccc1", "note": "[compound 7i]", "values": [{"measurement": "off-target selectivity profile", "setting": "[1]", "result": "excellent highly selective profile"}, {"measurement": "HepG2 Cell number", "setting": "[2]", "result": "−3", "unit": "%"}, {"measurement": "HepG2 Intracell free calcium", "setting": "[2]", "result": 0, "unit": "%"}, {"measurement": "HepG2 Membrane permeability", "setting": "[2]", "result": 0, "unit": "%"}, {"measurement": "HepG2 Mitochondrial membrane potential", "setting": "[2]", "result": 5, "unit": "%"}, {"measurement": "HepG2 Nuclear size", "setting": "[2]", "result": 9, "unit": "%"}, {"measurement": "effect on percentage of B, Th17, CD4 and CD8 T lymphocyte subpopulations and regulatory T cells", "setting": "[3]; basal non-stimulating conditions", "result": "no effect"}, {"measurement": "toxicity on immune subpopulations", "setting": "[3]; stimulating or not stimulating conditions", "result": "no toxicity effect"}, {"measurement": "Ames TA1537 +S9 (Mean revertants/well per title)", "setting": "[4]; +S9, positive control 2-anthramine 0.5", "result": 1.1}, {"measurement": "Ames TA1537 −S9 (Mean revertants/well per title)", "setting": "[4]; −S9, positive control 9-amino-acridine 1.56", "result": 0.9}, {"measurement": "QT Interval Basal", "setting": "[5]; 0.5 mg/kg i.p. group", "result": "49 ± 3"}, {"measurement": "QT Interval 3 min", "setting": "[5]; 0.5 mg/kg i.p.", "result": "48 ± 4"}, {"measurement": "QT Interval 6 min", "setting": "[5]; 0.5 mg/kg i.p.", "result": "46 ± 4"}, {"measurement": "QT Interval 10 min", "setting": "[5]; 0.5 mg/kg i.p.", "result": "53 ± 3"}, {"measurement": "QT Interval 20 min", "setting": "[5]; 0.5 mg/kg i.p.", "result": "59 ± 4"}, {"measurement": "QT Interval 30 min", "setting": "[5]; 0.5 mg/kg i.p.", "result": "58 ± 3"}, {"measurement": "QT Interval Basal", "setting": "[5]; 1.0 mg/kg i.p. group", "result": "48 ± 1"}, {"measurement": "QT Interval 3 min", "setting": "[5]; 1.0 mg/kg i.p.", "result": "45 ± 2"}, {"measurement": "QT Interval 6 min", "setting": "[5]; 1.0 mg/kg i.p.", "result": "46 ± 2"}, {"measurement": "QT Interval 10 min", "setting": "[5]; 1.0 mg/kg i.p.", "result": ">49 ± 1"}, {"measurement": "QT Interval Basal", "setting": "[5]; 10.0 mg/kg i.p. group", "result": "46 ± 1"}, {"measurement": "QT Interval 3 min", "setting": "[5]; 10.0 mg/kg i.p.", "result": "43 ± 1"}, {"measurement": "QT Interval 6 min", "setting": "[5]; 10.0 mg/kg i.p.", "result": "45 ± 3"}, {"measurement": "QT Interval 10 min", "setting": "[5]; 10.0 mg/kg i.p.", "result": "49 ± 2"}, {"measurement": "QT Interval 20 min", "setting": "[5]; 10.0 mg/kg i.p.", "result": "52 ± 1"}, {"measurement": "QT Interval 30 min", "setting": "[5]; 10.0 mg/kg i.p.", "result": "54 ± 1"}, {"measurement": "cardiac repolarization (QT interval), conclusion", "setting": "[5]; 0.5 to 10 mg/kg i.p.", "result": "no alteration in cardiac repolarization"}, {"measurement": "heart rate, PR and QRS duration", "setting": "[5]; 0.5 to 10 mg/kg i.p.", "result": "did not alter"}, {"measurement": "pro-arrhythmic effect", "setting": "[5]; 0.5 to 10 mg/kg i.p.", "result": "does not induce a pro-arrhythmic effect"}]}, {"smiles": "O=C(NCCCNCc1ccccc1)c1ccc(Cl)cc1", "note": "[compound 7i-deMe]", "values": [{"measurement": "inhibition at 100 µM", "setting": "[6]", "result": 77, "unit": "%"}, {"measurement": "Ki", "setting": "[7]", "result": 23, "unit": "nM"}]}]}
